This note sets out measurements from ChEMBL document CHEMBL1127964, “N-linked analogs of retinoid O-glucuronides: potential cancer chemopreventive/chemotherapeutic agents” (Bioorg Med Chem Lett, 1994).

For one assay, the species on record is Rattus norvegicus. In words: Antitumor activity against DMBA-induced mammary tumors in rats. It is filed as functional.
Assay [1] addresses T1, Retinoic acid receptor gamma (Homo sapiens, UniProt P13631).
T1 sequence (P13631 whole entry): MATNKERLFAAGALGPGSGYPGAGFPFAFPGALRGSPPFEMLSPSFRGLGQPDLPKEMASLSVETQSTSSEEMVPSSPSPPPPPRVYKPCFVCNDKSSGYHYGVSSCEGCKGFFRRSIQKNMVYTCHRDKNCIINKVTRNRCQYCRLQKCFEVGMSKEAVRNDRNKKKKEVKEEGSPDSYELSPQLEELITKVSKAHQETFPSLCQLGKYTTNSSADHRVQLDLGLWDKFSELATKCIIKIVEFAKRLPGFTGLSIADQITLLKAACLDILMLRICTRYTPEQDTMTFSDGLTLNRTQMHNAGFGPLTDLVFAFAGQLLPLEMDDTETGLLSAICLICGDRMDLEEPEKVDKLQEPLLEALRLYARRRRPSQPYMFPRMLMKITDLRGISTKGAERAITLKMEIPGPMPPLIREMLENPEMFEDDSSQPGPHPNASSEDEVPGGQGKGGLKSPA
In words: Inhibition of [3H]RA binding to Retinoic acid receptor RAR gamma.

Assay [2] deals with T1, Retinoic acid receptor gamma. The assay can be described thus: Inhibition of [3H]RA to binding Retinoic acid receptor RAR gamma.

The term Ki denotes a dissociation constant, usually derived from enzyme kinetics or from competition with a known ligand. Read a low Ki as tighter binding.

For `CC1=C(/C=C/C(C)=C/C=C/C(C)=C/C(=O)O)C(C)(C)CCC1` [TRETINOIN], in the assay filed under Rattus norvegicus, the Tumor was 1.17 number, the Tumor incidence was 83% and the Tumor latency is 49 days.

In assay [1], `CC1=C(/C=C/C(C)=C/C=C/C(C)=C/C(=O)NC2OC(C(=O)O)C(O)C(O)C2O)C(C)(C)CCC1` (stereo unspecified) registered a Ki of 280 nM. In the assay listed under Rattus norvegicus, the Tumor is recorded as 0.83 number, the Tumor incidence is listed as 50% and the Tumor latency came to 64 days.

As for `CC1=C(/C=C/C(C)=C/C=C/C(C)=C/C(=O)NC2OC(CO)C(O)C(O)C2O)C(C)(C)CCC1` (stereo unspecified), affinity in assay [2] was put at a Ki of 710 nM. In the assay listed under Rattus norvegicus, this compound showed a Tumor of 0.92 number, a Tumor incidence of 58% and a Tumor latency of 64 days.
